Assays:
[1] = system: P388, Mouse Lymphoma; assay: Cell proliferation 96-welled in vitro MTT assay, P388; assay type: cell-based; settings: 72 hr incubation, triplicate
Procedure: (§1) In vitro Efficacy: The Compounds were tested in a Cell Proliferation 96-welled in vitro MTT assay
(§2) The tests were done in triplicate and the test samples included negative control, positive control and ACB compounds at several concentrations (10^−4 to 10^−8) in 0.4% DMSO/DW medium. The incubation time was 72 hr and the IC50 was calculated from the generated inhibition curves.

[2] = Body weight of nude mice in the NCI-H460 xenograft study; assay type: in vivo, BALB/c nude mice; settings: after four weeks, twice every week, model 22.07 ± 1.68
Description: (§3) BALB/c nude mice, were provided by Shanghai SLAC Experimental Animal Co., Ltd. (Experimental animal production license:SCXK (Shanghai) 2003-0003; Experimental animal application license:SYXK (Jiangsu) 2002-0053). The ages of the mice was 35-40 days; their body weight was 18-22 g; half of the mice were female and the other half were male. Eight nude mice were used per group.
(§4) The tumor growing in Log phase was isolated from nude mice and sliced into 1.5 mm^3 particles. Under SPF conditions, the tumor particles were inoculated s.c. of nude mice right axilla. The xenografted tumor was measured the length and width by vernier caliper. Nude mice were randomly divided into eight groups when the bearing tumor reached 100-300mm^3 volume. Tumor length and width were measured twice every week to dynamic evaluate the anticancer activity of the tested compounds. Compound 1 was given by i.p. twice every week, compound 2 was given by i.v. twice every week, compound 3 was given by i.v. twice every week, control Topotecan was given by i.v. twice every week. In model group saline was give i.v. twice every week. After four weeks drug administration, nude mice were sacrificed and tumor was isolated by surgery for weight detection.

[3] = system: MCF-7, Human Breast; assay: Cell proliferation 96-welled in vitro MTT assay, MCF-7; assay type: cell-based; settings: MCF7, 72 hr incubation, triplicate
Procedure: as §1, §2

[4] = system: NCI-H460 human non-small cell lung cancer; assay: NCI-H460 human non-small cell lung cancer nude mice xenograft model; assay type: in vivo, BALB/c nude mice; settings: for Tumor Weight / Tumor Inhibitory Growth Weight: after four weeks; for Tumor Weight: twice every week, model 3.08 ± 0.88; for effect on nude mice xenograft NCI-H460 human non-small cell lung cancer growth (in words): mouse, in vivo; for dose dependence of anticancer effect (in words): two dosages per compound
Description: In this study the NCI-H460 human non-small cell lung cancer nude mice xenograft model was established and applied for in vivo anti-cancer activity evaluation of three compounds of the invention.
as §3
NCI-H460 human non-small cell lung cancer nude mice xenograft model was established by s.c. injection of 1×10^6 NCI-H460 cells into nude mice axilla. After formation of tumor the xenograft was passaged for three generations in nude mice.
as §4
Tumor volume (TV) was calculated by the following formula: TV=1/2×a×b2 a and b represent length and width, respectively.

[5] = system: Lewis Lung, mouse lung; assay: Cell proliferation 96-welled in vitro MTT assay, Lewis Lung; assay type: cell-based; settings: Lewis lung carcinoma, 72 hr incubation, triplicate
Procedure: as §1, §2

[6] = system: HT-29, Human Colorectal; assay: Cell proliferation 96-welled in vitro MTT assay, HT-29; assay type: cell-based; settings: 72 hr incubation, triplicate
Procedure: as §1, §2

[7] = Dosage 1: topotecan 2 i.v., Compound 1 0.625 i.p., Compound 2 5 i.v., Compound 3 1.5625 i.v. (mg/kg)
[8] = Dosage 2: Compound 1 0.3125 i.p., Compound 2 2.5 i.v., Compound 3 0.78125 i.v. (mg/kg)
[9] = 0.5 week, Dosage 1: topotecan 2, Compound 1 0.625, Compound 2 5, Compound 3 1.5625 mg/kg, X ± SD, n = 8
[10] = 0.5 week, Dosage 2: Compound 1 0.3125, Compound 2 2.5, Compound 3 0.78125 mg/kg, X ± SD, n = 8
[11] = 1 week, Dosage 1: topotecan 2, Compound 1 0.625, Compound 2 5, Compound 3 1.5625 mg/kg
[12] = 1 week, Dosage 2: Compound 1 0.3125, Compound 2 2.5, Compound 3 0.78125 mg/kg
[13] = 1.5 weeks, Dosage 1: topotecan 2, Compound 1 0.625, Compound 2 5, Compound 3 1.5625 mg/kg
[14] = 1.5 weeks, Dosage 2: Compound 1 0.3125, Compound 2 2.5, Compound 3 0.78125 mg/kg
[15] = 2 weeks, Dosage 1: topotecan 2, Compound 1 0.625, Compound 2 5, Compound 3 1.5625 mg/kg
[16] = 2 weeks, Dosage 2: Compound 1 0.3125, Compound 2 2.5, Compound 3 0.78125 mg/kg
[17] = 2.5 weeks, Dosage 1: topotecan 2, Compound 1 0.625, Compound 2 5, Compound 3 1.5625 mg/kg
[18] = 2.5 weeks, Dosage 2: Compound 1 0.3125, Compound 2 2.5, Compound 3 0.78125 mg/kg
[19] = 3 weeks, Dosage 1: topotecan 2, Compound 1 0.625, Compound 2 5, Compound 3 1.5625 mg/kg
[20] = 3 weeks, Dosage 2: Compound 1 0.3125, Compound 2 2.5, Compound 3 0.78125 mg/kg
[21] = 3.5 weeks, Dosage 1: topotecan 2, Compound 1 0.625, Compound 2 5, Compound 3 1.5625 mg/kg
[22] = 3.5 weeks, Dosage 2: Compound 1 0.3125, Compound 2 2.5, Compound 3 0.78125 mg/kg
[23] = 4 weeks, Dosage 1: topotecan 2, Compound 1 0.625, Compound 2 5, Compound 3 1.5625 mg/kg
[24] = 4 weeks, Dosage 2: Compound 1 0.3125, Compound 2 2.5, Compound 3 0.78125 mg/kg
[25] = higher dosage: compound 3 1.5625 mg/kg i.v., compound 2 5 mg/kg i.v., compound 1 0.625 mg/kg i.p., topotecan 2 mg/kg i.v.
[26] = lower dosage: compound 3 0.78125 mg/kg i.v., compound 2 2.5 mg/kg i.v., compound 1 0.3125 mg/kg i.p.

Structure (SMILES)	IC50 [1]	Ending Body Weight [2, 7]	Ending Body Weight [2, 8]	IC50 [3]	Tumor Volume [4, 9]	Tumor Volume [4, 10]	Tumor Volume [4, 11]	Tumor Volume [4, 12]	Tumor Volume [4, 13]	Tumor Volume [4, 14]	Tumor Volume [4, 15]	Tumor Volume [4, 17]	Tumor Volume [4, 19]	Tumor Volume [4, 21]	Tumor Volume [4, 23]	Tumor Weight [4, 7]	Tumor Inhibitory Growth Weight [4, 7]	inhibitory rate [4, 25]	IC50 [5]	IC50 [6]	further results
CCC1(OC(=O)CNC(=O)/C=C\C(=O)O)C(=O)OCc2c1cc1n(c2=O)Cc2cc3ccccc3nc2-1 (stereo not shown) [Compound 1]	10.9 µM	18.86 ± 1.60 g	18.59 ± 1.46 g	20.4 µM	220.9 mm3	194.9 mm3	504.2 mm3	560.8 mm3	706.7 ± 450.3 mm3	766.0 ± 480.3 mm3	1104.7 ± 759.6 mm3	1367.1 ± 880.2 mm3	1566.7 ± 867.8 mm3	1798.2 ± 767.2 mm3	2088.1 mm3	1.77 ± 0.73 g	42.5	42.5%	6.34 µM	44.3 µM	Tumor Volume [4, 16]: 1245.7 ± 585.6 mm3; Tumor Volume [4, 18]: 1459.9 ± 793.3 mm3; Tumor Volume [4, 20]: 1638.9 ± 827.1 mm3; Tumor Volume [4, 22]: 1909.7 ± 464.4 mm3; Tumor Volume [4, 24]: 2209.8 mm3; Tumor Weight [4, 8]: 1.85 ± 0.75 g; Tumor Inhibitory Growth Weight [4, 8]: 39.9; inhibitory rate [4, 26]: 39.9%; effect on nude mice xenograft NCI-H460 human non-small cell lung cancer growth (in words) [4]: could inhibit; dose dependence of anticancer effect (in words) [4]: dose-dependent anticancer effect
CCCS(=O)(=O)Oc1ccc2nc3c(cc2c1CN(C)C)Cn1c-3cc2c(c1=O)COC(=O)C2(CC)OC(=O)CNC(=O)/C=C\C(=O)O (stereo not shown) [Compound 2]	10.6 µM	18.93 ± 1.49 g	17.82 ± 1.06 g	30.8 µM	205.2 mm3	182.6 mm3	413.8 mm3	472.2 mm3	602.1 ± 339.3 mm3	706.8 ± 360.0 mm3	733.7 ± 497.0 mm3	950.0 ± 578.0 mm3	1147.2 ± 598.0 mm3	1632.9 ± 752.6 mm3	1639.4 mm3	1.55 ± 0.51 g	49.7	49.7%	12.8 µM	50.8 µM	Tumor Volume [4, 16]: 861.1 ± 523.9 mm3; Tumor Volume [4, 18]: 1084.9 ± 536.3 mm3; Tumor Volume [4, 20]: 1269.1 ± 644.1 mm3; Tumor Volume [4, 22]: 1841.8 ± 859.5 mm3; Tumor Volume [4, 24]: 2029.4 mm3; Tumor Weight [4, 8]: 1.75 ± 0.90 g; Tumor Inhibitory Growth Weight [4, 8]: 43.2; inhibitory rate [4, 26]: 43.2%; effect on nude mice xenograft NCI-H460 human non-small cell lung cancer growth (in words) [4]: could inhibit; dose dependence of anticancer effect (in words) [4]: dose-dependent anticancer effect
CC[C@@]1(OC(=O)CNC(=O)/C=C\C(=O)O)C(=O)OCc2c1cc1n(c2=O)Cc2cc3c(CN(C)C)c(OS(=O)(=O)C(C)C)ccc3nc2-1 [Compound 3]	0.0847 µM	19.63 ± 0.77 g	18.42 ± 1.04 g	9.79 µM	237.9 mm3	211.8 mm3	392.9 mm3	455.2 mm3	547.2 ± 390.0 mm3	624.6 ± 371.5 mm3	719.6 ± 315.8 mm3	958.4 ± 486.2 mm3	1093.2 ± 692.2 mm3	1400.4 ± 670.6 mm3	1588.3 mm3	1.36 ± 0.50 g	55.8	55.8%	0.929 µM	14.3 µM	Tumor Volume [4, 16]: 795.4 ± 389.0 mm3; Tumor Volume [4, 18]: 999.8 ± 562.9 mm3; Tumor Volume [4, 20]: 1291.5 ± 564.4 mm3; Tumor Volume [4, 22]: 1553.2 ± 706.3 mm3; Tumor Volume [4, 24]: 1908.5 mm3; Tumor Weight [4, 8]: 1.65 ± 0.86 g; Tumor Inhibitory Growth Weight [4, 8]: 46.4; inhibitory rate [4, 26]: 46.4%; effect on nude mice xenograft NCI-H460 human non-small cell lung cancer growth (in words) [4]: could inhibit; dose dependence of anticancer effect (in words) [4]: dose-dependent anticancer effect
CC[C@@]1(O)C(=O)OCc2c1cc1n(c2=O)Cc2cc3c(CN(C)C)c(O)ccc3nc2-1 [topotecan, Topotecan, reference compound]	18.5 µM	17.32 ± 1.18 g	–	22.2 µM	209.6 mm3	–	574.0 mm3	–	759.8 ± 419.9 mm3	–	933.1 ± 496.8 mm3	1220.7 ± 611.4 mm3	1273.3 ± 685.1 mm3	1413.0 ± 717.0 mm3	1639.9 mm3	1.58 ± 0.74 g	48.7	48.7%	11 µM	22.9 µM	–

— US20080255175A1, “Anti-cancer agents, compositions and methods of treating cancers” (priority 2007, published 2008)
